In patent publication US10787413B2, “Derivatives of curcuminoids and use thereof as an anticancer agent” (CHINA MEDICAL UNIVERSITY, priority 2016, dated 2020):
Where two headings read alike, the source gives them in different places.

Assays:
[1] = system: HCT-116 colon cancer cell; experiment: MTT cell viability assay, HCT-116 colon cancer cell; type: cell-based
Protocol: (§1) Cell viability was evaluated by measuring the reduction in MTT to yield blue formazan. Cells were cultured in 96-well plates, allowed to attach overnight, and then treated with compounds. After treatment, MTT solution (1 mg/ml) was added to each well, and plates were incubated for another 4 h. Medium were removed, blue formazan was dissolved in DMSO, and the absorbance was read at 570 nm^20.

PC3 prostate cancer cell = experiment: MTT cell viability assay, PC3 prostate cancer cell; type: cell-based
Protocol: as §1

[2] = system: MDA-MB-231 breast cancer cell; experiment: MTT cell viability assay, MDA-MB-231 breast cancer cell; type: cell-based, human
Protocol: Cell viability was evaluated by measuring the reduction in MTT to yield blue formazan. Cells were cultured in 96-well plates, allowed to attach overnight, and then treated with compounds. After treatment, MTT solution (1 mg/ml) was added to each well, and plates were incubated for another 4 h.

[3] = PC-3, treated 24 hours, read-out: IC50 24 hours
[4] = PC-3, treated 48 hours, read-out: IC50 48 hours
[5] = PC-3, treated 72 hours, read-out: IC50 72 hours
[6] = MDA-MB-231, treated 72 hours, read-out: IC50 72 hours
[7] = Homo sapiens, HCT-116, treated 24 hours, read-out: IC50 24 hours
[8] = Homo sapiens, HCT-116, treated 48 hours, read-out: IC50 48 hours
[9] = Homo sapiens, HCT-116, treated 72 hours, read-out: IC50 72 hours
[10] = Homo sapiens, MDA-MB-231, 24 h, MDA-MB-231, treated 24 hours, read-out: IC50 24 hours
[11] = Homo sapiens, MDA-MB-231, 48 h, MDA-MB-231, treated 48 hours, read-out: IC50 48 hours
[12] = Homo sapiens, MDA-MB-231, 72 h, MDA-MB-231, treated 72 hours, read-out: IC50 72 hours

| SMILES | IC50 ([1]; HCT-116, treated 24 hours, read-out: IC50 24 hours) | IC50 ([1]; HCT-116, treated 48 hours, read-out: IC50 48 hours) | IC50 ([1]; HCT-116, treated 72 hours, read-out: IC50 72 hours) | IC50 (PC3 prostate cancer cell; [3]) | IC50 (PC3 prostate cancer cell; [4]) | IC50 (PC3 prostate cancer cell; [5]) | IC50 ([2]; MDA-MB-231, treated 24 hours, read-out: IC50 24 hours) | IC50 ([2]; MDA-MB-231, treated 48 hours, read-out: IC50 48 hours) | IC50 [2, 6] | IC50 [1, 7] | IC50 [1, 8] | IC50 [1, 9] | IC50 [2, 10] | IC50 [2, 11] | IC50 [2, 12] |
| --- | --- | --- | --- | --- | --- | --- | --- | --- | --- | --- | --- | --- | --- | --- | --- |
| CCC(CO)(CO)C(=O)Oc1cc(/C=C/C(=O)/C=C(O)/C=C/c2ccc(OC)c(O)c2)ccc1OC [Compound 25] | 7.62 ± 0.41 µM | 4.77 ± 0.1 µM | 3.64 ± 0.03 µM | 15.9 ± 2.23 µM | 8.74 ± 0.01 µM | 7.03 ± 0.12 µM | 9.64 ± 0.07 µM | 4.94 ± 0.03 µM | 3.85 µM |  |  |  |  |  |  |
| COc1cc(/C=C/C(=O)CC(=O)/C=C/c2ccc(OC(=O)C(CO)(CO)COC(=O)C(CO)(CO)CO)c(OC)c2)ccc1O [Compound 38b] |  |  |  | ≥ 100 µM | 67.5 ± 1.25 µM | 63.94 ± 0.47 µM |  |  |  | 75 ± 3.1 µM | 61.3 ± 2.85 µM | 43.7 ± 1.36 µM | 82.6 ± 1.67 µM | 64.8 ± 2.39 µM | 55.3 ± 3.2 µM |
| COc1ccc(/C=C/C(=O)C(COC(=O)C(C)(CO)CO)(COC(=O)C(C)(CO)CO)C(=O)/C=C/c2ccc(OC)c(OC)c2)cc1OC [Compound 43, 2,2-bis((E)-3-(3,4-dimethoxyphenyl)acryloyl)propane-1,3-diylbis(3-hydroxy-2-(hydroxymethyl)-2-methylpropanoate)] |  |  |  | 67.7 ± 1.76 µM | 52.2 ± 1.23 µM | 51.3 ± 0.39 µM |  |  |  | 64.7 ± 1.56 µM |  | 25.1 ± 0.5 µM | 83 ± 0.17 µM |  | 17.3 ± 0.1 µM |
| COc1cc(/C=C/C(=O)/C=C(O)/C=C/c2cc(OC)c(OC(=O)C(C)(CO)CO)c(OC)c2)cc(OC)c1OC(=O)C(C)(CO)CO [Compound 30, ((1E,3Z,6E)-3-hydroxy-5-oxohepta-1,3,6-triene-1,7-diyl)bis(2,6-dimethoxy-4,1-phenylene) bis(3-hydroxy-2-(hydroxymethyl)-2-methylpropanoate)] |  |  |  | 7.79 ± 1.42 µM | 7.7 ± 0.87 µM | 3.14 ± 0.33 µM |  |  |  | 8.34 ± 0.83 µM | 4.77 ± 0.44 µM | 5.18 ± 0.76 µM | 17.5 ± 2.85 µM | 8.9 ± 1.28 µM | 6.19 ± 0.04 µM |
| COc1ccc(/C=C/C(=O)C(CO)(CO)C(=O)/C=C/c2ccc(OC)c(OC)c2)cc1OC [Compound 42, (1E,6E)-1,7-bis(3,4-dimethoxyphenyl)-4,4-bis(hydroxymethyl)hepta-1,6-diene-3,5-dione] |  |  |  | 77.2 ± 2.34 µM | 61.2 ± 2.3 µM | 26.1 ± 0.81 µM |  |  |  | 89.65 ± 0.49 µM | 8 ± 0.6 µM | 7.18 ± 0.68 µM | > 100 µM |  | 9.02 ± 1.13 µM |
| CC(CO)(CO)C(=O)Oc1ccc(/C=C/C(=O)C(C)(C)C(=O)/C=C/c2ccc(OC(=O)C(C)(CO)CO)cc2)cc1 [Compound 36, ((1E,6E)-4,4-Dimethyl-3,5-dioxohepta-1,6-diene-1,7-diyl)bis(4,1-phenylene) bis(3-hydroxy-2-(hydroxymethyl)-2-methylpropanoate)] |  |  |  | 17.1 ± 1.81 µM | 7.49 ± 0.33 µM | 3.62 ± 0.11 µM |  |  | 2.98 ± 0.09 µM | 4.12 ± 0.1 µM | 3.43 ± 0.2 µM | 2.63 ± 0.06 µM | 7.74 ± 0.41 µM | 3.13 ± 0.04 µM | 2.89 µM |
| COc1cc(/C=C/C(=O)C(COC(C)=O)(COC(C)=O)C(=O)/C=C/c2ccc(OC(=O)C(C)(CO)CO)c(OC)c2)ccc1OC(=O)C(C)(CO)CO [Compound 41, ((1E,6E)-4,4-bis(acetoxymethyl)-3,5-dioxohepta-1,6-diene-1,7-diyl)bis(2-methoxy-4,1-phenylene) bis(3-hydroxy-2-(hydroxymethyl)-2-methylpropanoate)] |  |  |  | 65.2 ± 1.43 µM | 47.4 ± 2.65 µM | 32.8 ± 2.7 µM |  |  |  | 9.52 ± 0.06 µM |  | 5.4 ± 0.02 µM | 57.6 ± 1.59 µM |  | 3.69 ± 0.02 µM |
| COc1ccc(/C=C/C(=O)C(C)(C)C(=O)/C=C/c2ccc(OC)c(OC(=O)C(C)(CO)CO)c2)cc1OC(=O)C(C)(CO)CO [Compound 37, ((1E,6E)-4,4-Dimethyl-3,5-dioxohepta-1,6-dien-1,7-diyl)bis(2-methoxy-5,1-phenylene) bis(3-hydroxy-2-(hydroxymethyl)-2-methylpropanoate)] |  |  |  | 2.86 ± 0.83 µM | 1.59 ± 0.24 µM | 1.84 ± 0.12 µM |  |  |  | 5.9 ± 1.87 µM | 2.71 ± 0.39 µM | 1.26 ± 0.04 µM | 7.6 ± 0.94 µM | 2.71 ± 0.23 µM | 2.7 µM |
